This note sets out measurements from ChEMBL document CHEMBL4346712, “Research progress in the biological activities of 3,4,5-trimethoxycinnamic acid (TMCA) derivatives” (Eur J Med Chem, 2019).

Usually IC50 stands for the point on the concentration scale where inhibition reaches its midpoint. Read a low IC50 as inhibition by little substance. One may read the CC50 as the concentration at which the toxic effect on the cells reaches its halfway point.

One data set deals with Candida albicans. Put plainly: Antifungal activity against Candida albicans ATCC 10231 after 24 hrs by CLSI broth microdilution method. Type of data set: functional, organism-based. As to conditions: ATCC 10231, 24 h. A general note: In broth dilution the organism is exposed to a series of concentrations in liquid medium.
The next data set concerns Candida tropicalis. Put plainly: Antifungal activity against Candida tropicalis ATCC 750 after 24 hrs by CLSI broth microdilution method. Type of data set: functional, organism-based. As to conditions: ATCC 750, 24 h.
The subject of another data set is Nakaseomyces glabratus. Put plainly: Antifungal activity against Candida glabrata ATCC 90030 after 24 hrs by CLSI broth microdilution method. The class given is functional, organism-based. As to conditions: ATCC 90030, 24 h.
The test system of the next data set is Candida parapsilosis. Put plainly: Antifungal activity against Candida parapsilosis ATCC 22019 after 24 hrs by CLSI broth microdilution method. The class given is functional, organism-based. Particulars: Lodderomyces parapsilosis, ATCC 22019, 24 h.
Data set [1] deals with Staphylococcus aureus. In words: Antibacterial activity against Staphylococcus aureus ATCC 6538 after 24 hrs by CLSI broth microdilution method. As to conditions: ATCC 6538, 24 h. Type of data set: functional, organism-based.
A short description of data set [2]: Cytotoxicity against BHK21 cells assessed as reduction in cell viability after 48 hrs by MTT assay. Type of data set: cell-based, Mesocricetus auratus, BHK-21. As to conditions: hamster. In general terms: Formazan colour is commonly taken as a measure of viable cells.
The nature of data set [3]: Selectivity index, ratio of CC50 for BHK21 cells to IC50 for Candida albicans ATCC 10231. The class given is toxicity. Particulars: hamster, read-out: Ratio CC50/IC50.
Data set [4] is described as follows: Selectivity index, ratio of CC50 for BHK21 cells to IC50 for Candida tropicalis ATCC 750. The class given is toxicity. Particulars: hamster, read-out: Ratio CC50/IC50.
The nature of data set [5]: Selectivity index, ratio of CC50 for BHK21 cells to IC50 for Candida glabrata ATCC 90030. The class given is toxicity. As to conditions: hamster, read-out: Ratio CC50/IC50.
A short description of data set [6]: Selectivity index, ratio of CC50 for BHK21 cells to IC50 for Candida parapsilosis ATCC 22019. Particulars: hamster, read-out: Ratio CC50/IC50. The class given is toxicity.
A short description of data set [7]: Selectivity index, ratio of CC50 for BHK21 cells to IC50 for Staphylococcus aureus ATCC 6538. As to conditions: hamster, read-out: Ratio CC50/IC50. Type of data set: toxicity.
Data set [8] relates to Staphylococcus aureus. Put plainly: Potency index, ratio of piplartine IC50 to test compound IC50 for Staphylococcus aureus ATCC 6538. The class given is functional.

Regarding `O=C(/C=C/c1ccccc1)NNC(=O)c1ccccc1`, the concentration for half-maximal inhibition (IC50) was determined as 376 µM in the data set with Candida albicans; 376 µM in the data set on Candida tropicalis; 376 µM in the data set with Nakaseomyces glabratus; 376 µM with Candida parapsilosis; 85.2 µM in the data set with Staphylococcus aureus [1]. For the same molecule, in data set [2], the CC50 at 48 h worked out at 232 µM. Moreover, the selectivity ratio in data set [3] came out at 0.61; in data set [4], 0.61; in [5] it was 0.61; in data set [6], 0.61; in data set [7] it was 2.71. Besides, in the data set on Staphylococcus aureus [8], the “Ratio IC50” value was 3.
